Assay results: PubChem BioAssay AID1963825 (Molecular Pharmacology Branch, DTP, NCI, 2024)

Assay: Anticancer human tumor 997537-175-T-J1-PDC patient-derived colon adenocarcinoma cell line growth inhibition [POLQ]
Conditions: 997537-175-T-J1-PDC complex spheroid viability, combination with POLQ inhibitors; for IC50: curve of first compound; for viability, T/C: stronger effect = lower value
In short: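 Growth inhibition in 3D: complex spheroids (tumor PDC, HUVEC, MSC) treated with POLQ inhibitor combinations; where Cmax unknown, highest tested concentration 10 microM, except SN-38 at 1 microM.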

[1] = second compound 0.0316 µM, first compound 0.0316 µM
[2] = second compound 0.0316 µM, first compound 0.1 µM
[3] = second compound 0.1 µM, first compound 0.0316 µM
[4] = second compound 0.1 µM, first compound 0.1 µM
[5] = second compound 0.316 µM, first compound 0.0316 µM
[6] = second compound 0.316 µM, first compound 0.1 µM
[7] = second compound 1 µM, first compound 0.0316 µM
[8] = second compound 1 µM, first compound 0.1 µM
[9] = second compound 3.16 µM, first compound 0.0316 µM
[10] = second compound 3.16 µM, first compound 0.1 µM
[11] = second compound 10 µM, first compound 0.0316 µM
[12] = second compound 10 µM, first compound 0.1 µM
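Further: luminescence signal used as a surrogate for viable cells; spheroids exposed to drugs for seven days before readout.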

CC[C@@]1(O)C(=O)OCc2c1cc1n(c2=O)Cc2cc3c(CN(C)C)c(O)ccc3nc2-1 + COC1C(OC(N)=O)C(O)C(Oc2ccc3c(O)c(NC(=O)c4ccc(O)c(CC=C(C)C)c4)c(=O)oc3c2C)OC1(C)C
IC50 (second compound 0.0316 µM): > 0.1 µM
IC50 (second compound 0.1 µM): > 0.1 µM
IC50 (second compound 0.316 µM): > 0.1 µM
IC50 (second compound 1 µM): > 0.1 µM
IC50 (second compound 3.16 µM): > 0.1 µM
IC50 (second compound 10 µM): > 0.1 µM
viability, T/C (second compound 0.0316 µM, first compound 0.000316 µM): 102%
viability, T/C (second compound 0.0316 µM, first compound 0.001 µM): 104%
viability, T/C (second compound 0.0316 µM, first compound 0.00316 µM): 110%
viability, T/C (second compound 0.0316 µM, first compound 0.01 µM): 103%
viability, T/C [1]: 90.8%
viability, T/C [2]: 77.6%
viability, T/C (second compound 0.1 µM, first compound 0.000316 µM): 111%
viability, T/C (second compound 0.1 µM, first compound 0.001 µM): 101%
viability, T/C (second compound 0.1 µM, first compound 0.00316 µM): 111%
viability, T/C (second compound 0.1 µM, first compound 0.01 µM): 103%
viability, T/C [3]: 97.2%
viability, T/C [4]: 68.6%
viability, T/C (second compound 0.316 µM, first compound 0.000316 µM): 96.2%
viability, T/C (second compound 0.316 µM, first compound 0.001 µM): 95%
viability, T/C (second compound 0.316 µM, first compound 0.00316 µM): 116%
viability, T/C (second compound 0.316 µM, first compound 0.01 µM): 102%
viability, T/C [5]: 105%
viability, T/C [6]: 58.4%
viability, T/C (second compound 1 µM, first compound 0.000316 µM): 90.8%
viability, T/C (second compound 1 µM, first compound 0.001 µM): 92.3%
viability, T/C (second compound 1 µM, first compound 0.00316 µM): 99.6%
viability, T/C (second compound 1 µM, first compound 0.01 µM): 96.3%
viability, T/C [7]: 86%
viability, T/C [8]: 76.8%
viability, T/C (second compound 3.16 µM, first compound 0.000316 µM): 101%
viability, T/C (second compound 3.16 µM, first compound 0.001 µM): 110%
viability, T/C (second compound 3.16 µM, first compound 0.00316 µM): 107%
viability, T/C (second compound 3.16 µM, first compound 0.01 µM): 92.6%
viability, T/C [9]: 81.7%
viability, T/C [10]: 55.6%
viability, T/C (second compound 10 µM, first compound 0.000316 µM): 105%
viability, T/C (second compound 10 µM, first compound 0.001 µM): 105%
viability, T/C (second compound 10 µM, first compound 0.00316 µM): 107%
viability, T/C (second compound 10 µM, first compound 0.01 µM): 98.5%
viability, T/C [11]: 98.2%
viability, T/C [12]: 70.2%

COc1ccc([C@@H](O)c2cc(-c3ncnc4cc(N5CCOCC5)ccc34)c(F)cc2Cl)nn1 + Cc1cccc(N(C)C(=O)C2C(O)CCN2c2nc(C)cc(C(F)(F)F)c2C#N)c1
IC50 (second compound 0.0316 µM): > 10 µM
IC50 (second compound 0.1 µM): > 10 µM
IC50 (second compound 0.316 µM): > 10 µM
IC50 (second compound 1 µM): > 10 µM
IC50 (second compound 3.16 µM): > 10 µM
IC50 (second compound 10 µM): > 10 µM
viability, T/C [1]: 102%
viability, T/C [2]: 108%
viability, T/C (second compound 0.0316 µM, first compound 0.316 µM): 103%
viability, T/C (second compound 0.0316 µM, first compound 1 µM): 108%
viability, T/C (second compound 0.0316 µM, first compound 3.16 µM): 101%
viability, T/C (second compound 0.0316 µM, first compound 10 µM): 84.3%
viability, T/C [3]: 92.3%
viability, T/C [4]: 111%
viability, T/C (second compound 0.1 µM, first compound 0.316 µM): 99.8%
viability, T/C (second compound 0.1 µM, first compound 1 µM): 106%
viability, T/C (second compound 0.1 µM, first compound 3.16 µM): 101%
viability, T/C (second compound 0.1 µM, first compound 10 µM): 77.7%
viability, T/C [5]: 104%
viability, T/C [6]: 109%
viability, T/C (second compound 0.316 µM, first compound 0.316 µM): 106%
viability, T/C (second compound 0.316 µM, first compound 1 µM): 104%
viability, T/C (second compound 0.316 µM, first compound 3.16 µM): 95.3%
viability, T/C (second compound 0.316 µM, first compound 10 µM): 82.9%
viability, T/C [7]: 98.5%
viability, T/C [8]: 102%
viability, T/C (second compound 1 µM, first compound 0.316 µM): 91.7%
viability, T/C (second compound 1 µM, first compound 1 µM): 109%
viability, T/C (second compound 1 µM, first compound 3.16 µM): 85.7%
viability, T/C (second compound 1 µM, first compound 10 µM): 69.7%
viability, T/C [9]: 80.8%
viability, T/C [10]: 93.4%
viability, T/C (second compound 3.16 µM, first compound 0.316 µM): 110%
viability, T/C (second compound 3.16 µM, first compound 1 µM): 106%
viability, T/C (second compound 3.16 µM, first compound 3.16 µM): 88.8%
viability, T/C (second compound 3.16 µM, first compound 10 µM): 72.7%
viability, T/C [11]: 101%
viability, T/C [12]: 109%
viability, T/C (second compound 10 µM, first compound 0.316 µM): 110%
viability, T/C (second compound 10 µM, first compound 1 µM): 112%
viability, T/C (second compound 10 µM, first compound 3.16 µM): 107%
viability, T/C (second compound 10 µM, first compound 10 µM): 69.8%
